We go through 41 molecules from PubChem BioAssay (NCI).

The term TGI denotes the concentration at which net growth stops. A lower TGI goes with more potent growth arrest. A word on the GI50: it is the concentration at which growth is held to half of that of the control.

Common to all, as to test: DTP human tumour cell line panel, 48 h
Assay [1] relates to DLD-1 colon.
Assay [2] concerns DMS 114 small cell lung.
Assay [3] deals with DMS 273 small cell lung.
For assay [4], the system named is KM20L2 colon.
The subject of assay [5] is LXFL 529 NSCLC.
Assay [6] relates to SNB-78 CNS.
Assay [7] concerns XF 498 CNS.
The subject of assay [8] is RXF-631 renal.
Assay [9] relates to MDA-N.

Several values for one entry are separate records, joined by “and”; a condition that tells them apart may be missing. Equal entries are not always repeated.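 All cell lines were grown in 96-well plates and treated with compound for 48 hours. GI50 is the concentration that inhibits growth by half. TGI is the concentration that stops growth completely.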

As to `CCCCCCCCCCCCNC(=S)OC`, the TGI in assay [1] is 28.9 µM; in assay [2], 17.9 µM; in [3], 29.3 µM; in [4] it was 30 µM; in assay [5], 28.2 µM; in assay [6], 45.9 µM. In [7], this molecule registered a TGI of 30.6 µM.

For `O=c1c2cccnc2ncn1CCN1CCCCC1`, the TGI in [1], in assay [2], in assay [3], in assay [4], in assay [5] and in [6] was over 100 µM each time. Also, the concentration for total growth inhibition (TGI) in assay [7] was over 100 µM.

`COc1cc2c(cc1O)[C@H](C)C(c1ccc(OC)c(OC)c1)O2` (some centres undefined): the TGI in [1] worked out at 21.3 µM; in assay [2] it was 13.8 µM; in assay [3] it was 15.4 µM; in assay [4], 38.2 µM; in assay [5] it was 21.5 µM; in [6] it was 64.7 µM. Further, in assay [7], the TGI worked out at 21.8 µM.

Consider `N#CCCC[Si]12OCCN(CCO1)CCO2`, for which the TGI in assay [1], in assay [2], in [3], in assay [5] and in [6] was over 100 µM each time.

Take `CN(C)CC1CCC/C1=N/OC(=O)c1ccccc1` (centres undefined): the TGI in [1], in [2], in [3], in [4], in assay [5] and in [8] was over 100 µM throughout. In assay [6], this molecule gave a TGI of over 100 µM.

In assay [9], `Nc1nc2[nH]cc(CCc3ccc(C(=O)N[C@@H](CCC(=O)O)C(=O)O)cc3)c2c(=O)[nH]1` showed a TGI of over 100 µM.

Consider `O=S1C(=c2ccc(=C3Sc4ccccc4S3)cc2)Sc2ccccc21` (centres undefined), for which the total growth inhibition concentration (TGI) in assay [1] was over 93.3 µM; in assay [2], over 56.4 µM; in assay [3], 37.1 µM; in assay [4], 31.9 µM; in [5], over 100 µM; in [6], over 100 µM.

In the case of `S=P1(Oc2ccccc2)NNP2(=NP(N3CC3)(N3CC3)=NP(N3CC3)(N3CC3)=N2)NN1` (centres undefined), the TGI in assay [1], in assay [2], in assay [3], in assay [5], in assay [8] and in [7] was over 100 µM in each case.

For `CCOC(=O)/C(=C/c1ccc(OC)cc1)N(CC)CC`, the TGI in assay [2], in assay [3], in assay [4], in [5], in [6] and in assay [7] was over 100 µM each time.

Molecule `COC1=CC(=O)C(C2(OC(C)C)OC(=O)C(Cl)=C2Cl)=CC1=O` (centres undefined) registered a TGI in [9] of over 100 µM.

`O=C(/C=C/c1c(O)ccc2ccccc12)c1ccc([N+](=O)[O-])cc1`: the concentration for total growth inhibition (TGI) in [1] was 40.8 µM; in assay [2], 41.1 µM; in assay [3] it was over 100 µM; in [4] it was over 100 µM; in [5], 30.4 µM; in assay [6] it was 66.4 µM. Further, the TGI in [7] is over 100 µM.

In [9], `O=C1CSC(=S)N1/N=C/c1ccc(Cl)c([N+](=O)[O-])c1` returned a TGI of 52.6 µM.

In the case of `CCOC(=O)C(=[N+]=[N-])C(=O)CN1C(=O)c2ccccc2C1=O`, the TGI in assay [9] was over 100 µM.

Molecule `Br[Se]c1ccccn1` registered a TGI in assay [9] of 32.2 µM.

As for `CCOc1ccc(NC2=CC(=O)C(=O)c3ccccc32)cc1`, the TGI is 21.7 µM in [1]; 3.71 µM in assay [2]; 8.01 µM in assay [3]; 36.7 µM in [4]; 11.2 µM in assay [5]; 3.94 µM in assay [9]. The TGI in assay [6] was 39.5 µM; in assay [7], 5.31 µM.

In the case of `O=C1C(C(Nc2ccccc2)c2ccccc2)=C([O-])c2ccccc21.O=C1C(C(Nc2ccccc2)c2ccccc2)=C([O-])c2ccccc21.[Cu+2]` (centres undefined), the GI50 was 34.6 µM in [1], 26.3 µM in [3], 52.5 µM in assay [4] and 84.6 µM in assay [6]. Besides, the TGI in assay [1], in assay [3], in [4] and in assay [6] was over 100 µM each time.

For the molecule `CC(=O)OCCOCNC(=S)N/N=C/c1ccc([N+](=O)[O-])o1`, the TGI was over 100 µM in assay [1]; 43.1 µM in assay [2]; over 100 µM in assay [3]; over 100 µM in assay [4]; over 100 µM in assay [5]; over 100 µM in assay [8]. Further, the TGI in assay [6] and in assay [7] was over 100 µM throughout.

As to `COCCOCOC(CCCCO)c1cc(C)c(O[Si](C)(C)C(C)(C)C)c(C)c1` (centres undefined), the TGI in [2] was found to be 10.2 µM; in assay [4], 17.9 µM; in assay [5], 22.6 µM.

In the case of `CNC(=O)NCCCC(NC(C)=O)C(=O)NCc1ccccc1` (centres undefined), the TGI in assay [1], in [2], in assay [3], in [4], in assay [5] and in assay [8] was over 100 µM each time. In assay [6], the TGI was over 100 µM.

For `Cc1ccc(S(=O)(=O)N2CCC2c2ccccc2)cc1` (centres undefined), the TGI in assay [2], in [3], in assay [4], in assay [6] and in assay [7] was over 100 µM each time.

For the molecule `CC1(C)CC(c2c[nH]c3ccccc23)=CC2=Nc3ccccc3C21O` (centres undefined), the TGI in assay [1], in assay [2], in [3], in assay [4], in [5] and in assay [6] was over 100 µM each time. In assay [7], this molecule displayed a TGI of over 100 µM.

For the molecule `C[C@@]1(O)CC[C@]2(C)C3CCCC3[C@H]12` (some centres undefined), the total growth inhibition concentration (TGI) in assay [1], in [2], in assay [3], in assay [4], in assay [5] and in assay [8] was over 100 µM in each case. In assay [6], this molecule returned a TGI of over 100 µM.

As for `CN(C)CC1CCCC/C1=N/O` (centres undefined), the TGI in assay [1], in [2], in [3], in assay [4], in [5] and in assay [8] was over 100 µM in each case. In assay [6], the concentration for total growth inhibition (TGI) was over 100 µM.

`N#CC(C(=O)CCC(=O)Nc1ccc(Cl)c(Cl)c1)c1ccccc1` (centres undefined): the TGI in assay [1], in assay [2], in assay [3], in [4], in assay [6] and in assay [7] was over 100 µM each time.

On to `CCCC/C=C/C=C/C=C/CCCCCCCC(=O)OCC(COC(=O)CCCCCCC/C=C/C1C=CC(CCCC)C(C(=O)O)C1C(=O)O)OC(=O)CCCCCCC/C=C/C=C/C=C/CCCC` (centres undefined) (tested in a mixture with another compound), for which the TGI in assay [1] was determined as 40 µM; in assay [2] it was 23.1 µM; in [3], 29.9 µM; in [4] it was 48.1 µM; in [5], 32.8 µM.

As to `O=C(NC1C=CCC2C(=O)N(c3ccccc3)C(=O)C12)OCc1ccccc1` (centres undefined), the TGI in assay [1], in [3], in assay [4], in [5], in assay [6] and in assay [7] was over 100 µM each time.

Consider `O=C(Nc1nc(=S)[nH][nH]1)C(=O)C(C(=O)c1ccc2ccccc2c1)C1OC(=O)c2ccccc21` (centres undefined), for which the TGI in [1] is 44.6 µM; in [2], 52.7 µM; in assay [3] it was 87.5 µM; in [4], over 100 µM; in [5], 52.7 µM; in assay [8], 77.6 µM. Moreover, the TGI was over 100 µM in assay [6] and 41.9 µM in [7].

As to `Clc1ccc2cccc3c2c1C1OC3c2ccccc21` (centres undefined), the TGI in assay [1], in assay [2], in assay [3], in assay [4], in assay [5] and in assay [6] was over 100 µM each time. Moreover, in assay [7], the TGI was over 100 µM.

`C=C(C)C12OC1[C@@]1(C)C(=CC2=O)CCC(O)[C@@H]1C` (some centres undefined): the TGI in assay [9] was 17.3 µM.

For the molecule `CN(C)C(=S)/N=c1\ssc(=S)n1C1CCCCC1`, the TGI in assay [1] was 58.2 µM; in [2], 50.5 µM; in assay [3], over 100 µM; in assay [4] it was over 100 µM; in assay [5] it was 75.6 µM; in [8], 40.8 µM. For the same molecule, the TGI in assay [7] is 59.3 µM.

Regarding `Cc1[cH-]c(=O)n(-c2ccccc2)n1.[Au+].[Au].c1ccc([PH+](c2ccccc2)c2ccccc2)cc1.c1ccc([PH+](c2ccccc2)c2ccccc2)cc1`, the GI50 in assay [1] was 15.7 µM; in assay [2], 2.81 µM; in assay [3] it was 10.3 µM; in assay [4], 66.7 µM; in assay [5], 0.488 µM and 1.09 µM; in assay [6] it was 3.43 µM and 14.6 µM. Also, the TGI in assay [1] is 41.5 µM; in [2], 11.6 µM; in assay [3], 30.7 µM; in assay [4], over 100 µM; in [5], 2.38 µM and 3.55 µM; in assay [6] it was over 100 µM.

Turning to `CN1C(=O)C(=O)N2c3ccc(Cl)cc3C3(c4ccccc4)N=CC12O3` (centres undefined), the TGI came out at 10.3 µM in assay [1]; 11.6 µM in assay [2]; 16.4 µM in [3]; 24.1 µM in [4]; 10.2 µM in assay [5]; 33.8 µM in [6]. In addition, in assay [7], the total growth inhibition concentration (TGI) stood at 12.3 µM.

As to `[O-][Cl+3]([O-])([O-])[O-].[O]=[Ru]=[O].c1ccc(-c2ccccn2)nc1.c1ccc(-c2ccccn2)nc1`, the GI50 in [1] is over 100 µM; in assay [2], 21.9 µM; in assay [3], 22.4 µM; in assay [4], over 100 µM; in [5], 41.3 µM; in assay [6], over 100 µM. Besides, the TGI in assay [1] was over 100 µM; in assay [2], 61.2 µM; in [3], over 100 µM; in assay [4] it was over 100 µM; in assay [5] it was over 100 µM; in assay [6], over 100 µM.

In the case of `O=C(O)CSc1n[nH]c(-c2ccccc2O)n1`, the TGI in [1], in [2], in assay [3], in assay [4], in assay [5] and in assay [8] was over 100 µM each time. In addition, the TGI in assay [6] and in assay [7] was over 100 µM throughout.

With `COc1cc2c(cc1OC)C(Cl)C(c1ccc(F)cc1)=C2Cl` (centres undefined), the TGI in assay [1] was determined as 32.9 µM; in assay [2], 28.5 µM; in assay [3], 31.9 µM; in assay [4] it was 28 µM; in [5], 24 µM; in assay [6], 68.6 µM.

In the case of `COc1c(CC(C)=O)ccc2c1C(=O)c1ccc(C=O)c(OC(C)=O)c1C2=O`, the TGI in [1] is 14.3 µM; in [2], 33.2 µM; in [3], 24.5 µM; in [4], 37.8 µM; in assay [5], 19.4 µM; in assay [8] it was 47.8 µM. In [6], this molecule yielded a TGI of 55.6 µM.

In the case of `CCOC(=O)C1Sc2ccccc2N=C1C` (centres undefined), the TGI in assay [1], in assay [2], in assay [4], in [5], in assay [6] and in assay [7] was over 100 µM in each case.

`CC(=O)OC1(C)N=NC2(CCCCC2)O1` (centres undefined) gave a TGI in assay [9] of over 100 µM.

Molecule `C[C@@H]1CC[C@H]2C(C)(C)[C@H]3C[C@@]12CC[C@@]3(C)O` returned a TGI in assay [9] of over 100 µM.

As for `CN(C)C=Nc1nc(=O)n(C2CCC(CO)O2)cc1F` (centres undefined), the TGI in [1], in [3], in assay [4], in assay [5], in assay [6] and in [7] was over 100 µM throughout.

For `Cc1nc(-c2nc(C)c(C(=O)NNC(=O)C[n+]3ccccc3)s2)sc1C(=O)NNC(=O)C[n+]1ccccc1`, the TGI in assay [1], in assay [2], in [4], in assay [5] and in [6] was over 100 µM throughout.
